From patent US12495801B2, “Bacillus subtilis JCK-1398 strain inducing resistance in various plants, and composition and method for controlling pine wilt disease by using same” (Republic of Korea (National institute of forest science), priority 2020, dated 2025) come the findings set out here.

Assay type in all cases: in vivo
Assay [1] relates to Xanthomonas euvesicatoria. Description: Control effect against bacterial spot on chili pepper plants. As to conditions: control agrochemical, 1,000-fold diluted solution. How it is done:
To 500-fold and 5,000-fold diluted solutions of a spray-dried powder of the JCK-1398 strain prepared by the same method as in Example 8 were added the surfactant Tween® 20 (250 μg/ml), and then 8- to 9-leaf stage chili pepper plants (Hungnong Seed, Bultap chili pepper) were treated with the resultant solutions at 20 ml per pot by soil drenching and foliar spraying. Each sample was applied 4 days before inoculation with Xanthomonas euvesicatoria inoculum. As for a control group, the synthetic agrochemical pesticides Sungbocycline wettable powder (oxytetracycline, SUNGBO Chemicals) and Ilpum wettable powder (oxolinic acid 20% WP, Dongbang Agro) each were applied at a predetermined amount (1,000-fold diluted solution), and as for an untreated group, only Tween® 20 (250 μg/ml) was applied in the same manner without chemical agents.
Then, Xanthomonas euvesicatoria was subjected to static culture in TSA at 30° C. for about 48 hours, and then the cells were harvested using 2 ml of sterile water. The inoculum was prepared by diluting the harvested Xanthomonas euvesicatoria to an optical density value of 0.1 at 600 nm through a UV spectrometer. […]
Each treatment was repeated three times, and each experiment was repeated twice. The disease severity was determined using an index of 0 to 6 according to Abbasi, and thus the severity of bacterial spot formed on chili pepper leaves was investigated. […]

The test system of assay [2] is Bursaphelenchus xylophilus. Description: Pine wilt disease field tests, Pinus densiflora adult trees aged 15 years (Example 9). Conditions: for Disease severity (%): adult trees, JCK-1398 = 50-fold diluted spray-dried powder foliar spray, EB = A-Pharm trunk injection; for Control value (%): foliar spray, EB by trunk injection. Here is the method: Based on the above results, the field test was additionally performed using Pinus densiflora adult trees aged 15 years (root diameter: 8-11 cm, height: 6-8 m) in order to investigate the control effect of the Bacillus subtilis JCK-1398 strain against pine wilt disease in adult trees. The field test was performed twice in 2018 (first field test) and 2019 (second field test). In the first field test, a spray-dried powder of a culture of the JCK-1398 strain (prepared by the same method as in Example 8) was used, and in the second field test, a spray-dried powder of a culture of the JCK-1398 strain was formulated into JCK-1398 20% SC (emulsion) before use. The JCK-1398 20% SC formulation was formulated with a composition of a JCK-1398 spray-dried powder (20.0%), CR-NF 135B (4.5%), xanthan gum (0.03%), a defoamer (0.1%), and water (75.37%).
The spray-dried powder of the culture of the JCK-1398 strain and the JCK-1398 20% SC formulation were diluted 50-fold and 2000-fold, respectively, in an aqueous solution containing 250 μg/ml Tween® 20, and then placed in a sprayer, and each pine tree was foliar-sprayed with about 1 L of each diluted solution. The treatment by foliar spraying was performed twice at an interval of 1 month. One week after each second treatment, each pine tree was inoculated, by trunk injection, with Bursaphelenchus xylophilus at 20,000 nematodes in the first field test and at 10,000 nematodes in the second field test. For a control group, A-Pharm (emamectin benzoate 2.15%, emulsion, Syngenta) was applied at 1 ml per diameter at breast by trunk injection, and the A-Pharm was applied once 1 week before the inoculation with Bursaphelenchus xylophilus. The untreated group was treated with only 250 μg/ml Tween@ 20 without chemical agents in the same manner. The results are shown in FIGS. 7A to 7C and Tables 13 and 14.

The test system of assay [3] is Bursaphelenchus xylophilus. As to the kind of experiment: Pine wilt disease seedling test of aerial spraying formulations (Example 11). As to conditions: EB control group; 40 days after inoculation. How it is done: In order to investigate the control effects of the Bacillus subtilis JCK-1398 strain against pine wilt disease through aerial spraying in adult trees, a novel formulation was prepared. The JCK-1398 10% SC formulation was formulated with a composition of a spray-dried powder of JCK-1398 (10.0%), CR-NF 135B (3.0%), xanthan gum (0.01%), a defoamer (0.1%), propylene glycol (5.0%), sodium benzoate (0.2%), and water (81.69%).
The JCK-1398 10% SC formulation and the JCK-1398 20% SC formulation (existing formulation, Example 9) each were prepared into 10-fold, 100-fold, and 500-fold diluted solutions, and each pine tree aged 3 years was foliar-sprayed with 100 μl ( 1/50 of the existing treatment amount) of each of the diluted solutions twice at an interval of 7 days, 2 weeks and 1 week before inoculation. Last, the inoculation with Bursaphelenchus xylophilus was performed 7 days after the second treatment with the diluted solution by the same method as in Example 4-4, and the degree of wilting was determined 40 days after the inoculation with Bursaphelenchus xylophilus.

The test system of assay [4] is Bursaphelenchus xylophilus. Description: Pine wilt disease control by culture, culture filtrate and cell fraction (Example 6). As to conditions: samples at OD 0.8, 5 ml foliar spray; EB 20 mg/ml by trunk injection. Here is the method:
The JCK-1398 strain was cultured by the same method as in Example 4-1 and adjusted to an optical density value of 0.8.
The culture of the JCK-1398 strain was separated into a culture filtrate and a cell fraction by centrifugation (1,300 rpm, 15 min). The precipitated cell fraction was suspended by addition of the same volume of phosphate-buffered saline used before centrifugation. Each pine tree was sufficiently pre-treated with 5 ml of Tween® 20 (250 μg/ml) and then dried for 2 hours, so as to enable each sample (a culture, a culture filtrate, and a cell fraction) to be well adsorbed into leaves. Then, each of the culture, culture filtrate, and cell fraction was dissolved in an aqueous solution containing Tween® 20 (250 μg/ml) to an optical density value of 0.8, and then placed in a fine sprayer and each pine tree was foliar-sprayed with 5 ml of each sample. The nematicidal substance emamectin benzoate as a control group was dissolved in an aqueous solution containing 10% methanol to 20 mg/ml, followed by trunk injection.

`CCn1cc(C(=O)O)c(=O)c2cc3c(cc21)OCO3` [Oxolinic acid, oxolinic acid]: the “Control value (%)” value in assay [1] (Folia spraying) is given as 27.1%.
With `CN(C)[C@@H]1C(O)=C(C(N)=O)C(=O)[C@@]2(O)C(O)=C3C(=O)c4c(O)cccc4[C@@](C)(O)[C@H]3[C@H](O)[C@@H]12` [Oxytetracyclin, oxytetracycline], the “Control value (%)” value in assay [1] (Soil drenching) is 20.8%.
emamectin benzoate [EB]: the “Disease severity (%)” value in assay [2] (1 Month after inoculation) turned out to be 0%; in assay [2] (2 Months after inoculation), 1%; in assay [2] (3 Months after inoculation), 2.5%; in assay [2] (4 Months after inoculation) it was 7.5%; in assay [2] (5 Months after inoculation), 7.5%; in assay [2] (6 Months after inoculation), 10%. Further, the “Control value (%)” value in assay [2] (2018-Year field test, powder 50-fold diluted, 20,000 nematodes) is reported as 86.2%; in assay [2] (2019-Year field test, 20% SC 2000-fold diluted, 10,000 nematodes), 75%; in assay [3], 100.0%; in assay [4], 97.0%.
